Laboratory results reported in patent US8802664B2 (Bioproject, priority 2010, dated 2014).
Where a name gives a salt, the structure may show the parent alone.

Going from `CN1CCC(OC(c2cccc(OCC=CCO)c2)c2nc3ccccc3s2)CC1` (stereo not shown) (as salt: oxalate) [Example 422, 4-{3-[benzothiazol-2-yl(1-methylpiperidin-4-yloxy)methyl]phenoxy}but-2-en-1-ol] to `CN1CCC(OC(c2cccc(OCCO)c2)c2nc3ccccc3s2)CC1` (stereo not shown) (as salt: oxalate) [Example 244, 2-{3-[benzothiazol-2-yl(1-methylpiperidin-4-yloxy)methyl]phenoxy}ethanol], the melting point falls from 73 °C to 45 °C.

Compared with `CN1CCC(OC(c2cccc(OCCF)c2)c2nc3ccccc3[nH]2)CC1` (stereo not shown) (as salt: oxalate) [Example 476], `CN1CCC(OC(c2cccc(OCCCF)c2)c2nc3ccccc3[nH]2)CC1` (stereo not shown) (as salt: oxalate) [Example 475] is lower in melting point: 136 °C for the first, 106 °C for the second.

Going from `CN1CCC(OC(c2cccc(OCCCn3nccn3)c2)c2nc3ccccc3s2)CC1` (stereo not shown) (as salt: oxalate) [Example 349, 2-{(1-methylpiperidin-4-yloxy)[3-(3-[1,2,3]triazol-2-yl-propoxy)phenyl]methyl}benzothiazole] to `CN1CCC(OC(c2cccc(OCCCn3cncn3)c2)c2nc3ccccc3s2)CC1` (stereo not shown) (as salt: oxalate) [Example 348, 2-{(1-methylpiperidin-4-yloxy)[3-(3-[1,2,4]triazol-1-yl-propoxy)phenyl]methyl}benzothiazole], the melting point falls from 74 °C to 60 °C.

Going from `CCOC(=O)n1c(C(OC2CCN(C)CC2)c2cc(OC(F)(F)F)ccc2F)nc2ccccc21` (stereo not shown) (as salt: oxalate) [Example 553] to `CN1CCC(OC(c2nc3ccccc3[nH]2)c2cc(OC(F)(F)F)ccc2Cl)CC1` (stereo not shown) (as salt: oxalate) [Example 524], the melting point falls from 118 °C to 107 °C.

Going from `CN1CCC(COC(c2cccc(Br)c2)c2nc3cc(F)ccc3[nH]2)C1` (stereo not shown) (as salt: oxalate) [Example 449, 2-[(3-bromophenyl)(1-methylpyrrolidin-3-ylmethoxy)methyl]-5-fluoro-1H-benzimidazole] to `CN1CCC(OC(c2cccc(C#CCCCN)c2)c2nc3cc(F)ccc3[nH]2)CC1` (stereo not shown) (as salt: oxalate) [Example 438, 5-{3-[(5-fluoro-1H-benzimidazol-2-yl)(1-methylpiperidin-4-yloxy)methyl]phenyl}pent-4-ynylamine], the melting point rises from 70 °C to 150 °C.

First: CN1CCC(OC(c2cccc(CCc3cn(C)cn3)c2)c2nc3ccccc3s2)CC1 (stereo not shown) (as salt: oxalate) [Example 306, 2-[{3-[2-(1-methyl-1H-imidazol-4-yl)ethyl]phenyl}(1-methylpiperidin-4-yloxy)methyl]benzothiazole]
Second: CN1CCC(OC(c2cccc(CCCCN)c2)c2nc3ccccc3s2)CC1 (stereo not shown) (as salt: oxalate) [Example 366, 4-{3-[benzothiazol-2-yl(1-methylpiperidin-4-yloxy)methyl]phenyl}butylamine]
The melting point of the first is lower: 80 °C for the first, 100 °C for the second.

Compared with `CC(=O)c1cccc(-c2cccc(C(OC3CCN(C)CC3)c3nc4ccccc4[nH]3)c2)c1` (stereo not shown) (as salt: oxalate) [Example 110, 1-{3′-[(1H-benzimidazol-2-yl)(1-methylpiperidin-4-yloxy)methyl]biphenyl-3-yl}ethanone], `CSc1cccc(-c2cccc(C(OC3CCN(C)CC3)c3nc4ccccc4[nH]3)c2)c1` (stereo not shown) (as salt: oxalate) [Example 116, 2-[(1-methylpiperidin-4-yloxy)(3′-methylsulfanylbiphenyl-3-yl)methyl]-1H-benzimidazole] is lower in melting point: 140 °C for the first, 80 °C for the second.

First: CN1CCC(OC(c2cccc(OCc3cccnc3)c2)c2nc3ccccc3s2)CC1 (stereo not shown) (as salt: oxalate) [Example 284, 2-{(1-methylpiperidin-4-yloxy)[3-(pyridin-3-ylmethoxy)phenyl]methyl}benzothiazole]
Second: CN1CCC(OC(c2cccc(OCc3cccc(F)c3)c2)c2nc3ccccc3s2)CC1 (stereo not shown) (as salt: oxalate) [Example 171, 2-[[3-(3-fluorobenzyloxy)phenyl](1-methylpiperidin-4-yloxy)methyl]benzothiazole]
The melting point of the first is higher: 102 °C for the first, 65 °C for the second.

Compared with `CN1CCC(OC(c2cccc(SCCCF)c2)c2nc3ccccc3[nH]2)CC1` (stereo not shown) (as salt: oxalate) [Example 508], `CN1CCC(OC(c2cccc(SCCN)c2)c2nc3ccccc3s2)CC1` (stereo not shown) (as salt: oxalate) [Example 269, 2-{3-[benzothiazol-2-yl(1-methylpiperidin-4-yloxy)methyl]phenylsulfanyl}ethylamine] is lower in melting point: 85 °C for the first, 80 °C for the second.

Compared with `CN1CCC(OC(c2cccc(N3CCC(N)CC3)c2)c2nc3ccccc3s2)CC1` (stereo not shown) (as salt: oxalate) [Example 405, 1-{3-[benzothiazol-2-yl(1-methylpiperidin-4-yloxy)methyl]phenyl}piperidin-4-ylamine], `CN1CCC(OC(c2cccc(N3CCC(N(C)C)C3)c2)c2nc3ccccc3s2)CC1` (stereo not shown) (as salt: oxalate) [Example 484] is lower in melting point: 137 °C for the first, 106 °C for the second.

First: CN1CCC(OC(c2cccc(OCCCCCN3CCN(C(=O)OC(C)(C)C)CC3)c2)c2nc3ccccc3[nH]2)CC1 (stereo not shown) (as salt: oxalate) [Example 391, 4-(5-{3-[(1H-benzimidazol-2-yl)(1-methylpiperidin-4-yloxy)methyl]phenoxy}pentyl)piperazine-1-carboxylic acid tert-butyl ester]
Second: CN1CCC(OC(c2cccc(OCCCCCN)c2)c2nc3ccccc3s2)CC1 (stereo not shown) (as salt: oxalate) [Example 371, 5-{3-[benzothiazol-2-yl(1-methylpiperidin-4-yloxy)methyl]phenoxy}pentylamine]
The melting point of the first is lower: 101 °C for the first, 141 °C for the second.

Going from `COc1ccc(-c2cccc(C(NC3CCN(C)CC3)c3nc4ccccc4s3)c2)cc1` (stereo not shown) (as salt: oxalate) [Example 211, [benzothiazol-2-yl(4′-methoxybiphenyl-3-yl)methyl](1-methylpiperidin-4-yl)amine] to `Cc1cccc(C(NC2CCN(C)CC2)c2nc3ccccc3s2)c1` (stereo not shown) (as salt: oxalate) [Example 21, [(benzothiazol-2-yl)(m-tolyl)methyl](1-methylpiperidin-4-yl)amine], the melting point falls from 130 °C to 127 °C.

Going from `CN1CCC(NC(c2cccc(Oc3ccccc3)c2)c2nc3ccccc3[nH]2)CC1` (stereo not shown) (as salt: oxalate) [Example 85, [(1H-benzimidazol-2-yl)(3-phenoxyphenyl)methyl](1-methylpiperidin-4-yl)amine] to `CN1CCC(NC(c2cccc(OCc3cccc(F)c3)c2)c2nc3ccccc3[nH]2)CC1` (stereo not shown) (as salt: oxalate) [Example 105, {(1H-benzimidazol-2-yl)[3-(3-fluorobenzyloxy)phenyl]methyl}(1-methylpiperidin-4-yl)amine], the melting point falls from 144 °C to 116 °C.

First: Cc1ccc(C(NC2CCN(C)CC2)c2nc3ccccc3s2)cc1 (stereo not shown) (as salt: oxalate) [Example 36, (benzothiazol-2-yl-p-tolylmethyl)(1-methylpiperidin-4-yl)amine]
Second: CN1CCC(NC(c2cc3ccccc3o2)c2nc3ccccc3s2)CC1 (stereo not shown) (as salt: oxalate) [Example 37, [(benzofuran-2-yl)(benzothiazol-2-yl)methyl](1-methylpiperidin-4-yl)amine]
The melting point of the first is lower: 110 °C for the first, 125 °C for the second.

First: CN1CCC(OC(c2ccccc2)c2nc3ccccc3s2)C1 (stereo not shown) (as salt: oxalate) [Example 2, 2-[(1-methylpyrrolidin-3-yloxy)phenyl-methyl]benzothiazole]
Second: CN1CCC(OC(c2cccc(I)c2)c2nc3ccccc3s2)CC1 (stereo not shown) (as salt: oxalate) [Example 41, 2-[(3-iodophenyl)(1-methylpiperidin-4-yloxy)methyl]benzothiazole]
The melting point of the first is lower: 120 °C for the first, 165 to 170 °C for the second.

First: CN1CCC(NC(c2cccc(OCC3CCCCC3)c2)c2nc3ccccc3s2)CC1 (stereo not shown) (as salt: oxalate) [Example 93, [benzothiazol-2-yl(3-cyclohexylmethoxyphenyl)methyl](1-methylpiperidin-4-yl)amine]
Second: CCOc1cccc(C(OC2CCN(C)CC2)c2nc3ccccc3s2)c1 (stereo not shown) (as salt: oxalate) [Example 47, 2-[(3-ethoxyphenyl)(1-methylpiperidin-4-yloxy)methyl]benzothiazole]
The melting point of the first is higher: 98 °C for the first, 84 °C for the second.

Compared with `CN1CCC(OC(c2nc3cc(F)ccc3[nH]2)c2cc(OC(F)(F)F)ccc2F)CC1` (stereo not shown) (as salt: oxalate) [Example 509], `CN1CCC(OC(c2nc3ccccc3s2)c2ccc(F)cc2F)CC1` (stereo not shown) (as salt: oxalate) [Example 12, 2-[(2,4-difluorophenyl)(1-methyl-piperidin-4-yloxy)methyl]-benzothiazole] is higher in melting point: 70 °C for the first, 182 °C for the second.

Going from `CN1CCC(OC(c2cccc(N3CCCC3CO)c2)c2nc3ccccc3s2)CC1` (stereo not shown) (as salt: oxalate) [Example 323, (1-{3-[benzothiazol-2-yl(1-methylpiperidin-4-yloxy)methyl]phenyl}pyrrolidin-2-yl)methanol] to `CN1CCC(OC(c2cccc(N3CCC(=O)C3)c2)c2nc3ccccc3s2)CC1` (stereo not shown) (as salt: oxalate) [Example 443, 1-{3-[benzothiazol-2-yl(1-methylpiperidin-4-yloxy)methyl]phenyl}pyrrolidin-3-one], the melting point rises from 76 °C to 105 °C.

Compared with `CN1CCC(NC(c2cccc(OCc3cc(F)ccc3F)c2)c2nc3ccccc3[nH]2)CC1` (stereo not shown) (as salt: oxalate) [Example 149, {(1H-benzimidazol-2-yl)[3-(2,5-difluoro-benzyloxy)phenyl]methyl}(1-methylpiperidin-4-yl)amine], `CSCCOc1cccc(C(OC2CCN(C)CC2)c2nc3ccccc3s2)c1` (stereo not shown) (as salt: oxalate) [Example 250, 2-{(1-methylpiperidin-4-yloxy)[3-(2-methylsulfanyl-ethoxy)phenyl]methyl}benzothiazole] is lower in melting point: 159 °C for the first, 89 °C for the second.

Compared with `CN1CCC(OC(c2cccc(C#N)c2)c2nc3ccccc3s2)CC1` (stereo not shown) (as salt: oxalate) [Example 197, 3-[benzothiazol-2-yl(1-methylpiperidin-4-yloxy)methyl]benzonitrile], `Cc1ccc(C(OC2CCN(C)CC2)c2nc3ccccc3s2)s1` (stereo not shown) (as salt: oxalate) [Example 19, 2-[(1-methylpiperidin-4-yloxy)(5-methylthiophen-2-yl)methyl]benzothiazole] is higher in melting point: 75 °C for the first, 174 °C for the second.
